The conditions of data set [1]: media of pH 1, 4.5 and 6.8; 120 min; at the time of manufacture.
Experimental: All experiments were performed in triplicate with 25 mg of the specific drug, or an equivalent amount of drug-loaded SNEDDS (300 µl) using USP apparatus II (DT 800 LH, ERWEKA GmbH, Langen, Germany). Dissolution was studied in 0.1 N hydrochloric acid (pH 1.0), acetate buffer USP (pH 4.5), and phosphate buffer USP (pH 6.8). All experiments were performed in a media volume of 500 ml at 37 ± 0.5 °C using a paddle speed of 100 rpm. All samples were withdrawn automatically using a fraction collector, equipped with cannula filters of 10 µm pore size and manually diluted 1:1 (v/v) with acetonitrile before HPLC analysis.
Data set [2] in a line: Saturation solubility of the drug in individual excipients. Type of data set: physicochemical. The settings on record: 37 °C, 24 h. The method, then: The saturation solubility of each drug in each of the individual excipients was investigated in triplicate by the following procedure: first, drug and excipients were blended in 2-ml safe lock test tubes ([17], [23], [26]). After short, intense vortex mixing, the mixtures were agitated at 1000 rpm for 24 h at 37 °C under light protection using a ThermoMixer® C (Eppendorf AG, Hamburg, Germany) to achieve an equilibrium state ([7], [12], [16], [17], [23], [26], [27]). […] After centrifugation at 37 °C, a defined mass (50 mg) of the supernatant was withdrawn and transferred to a 25-ml volumetric flask, and the sample was diluted with methanol to a total volume of 25.0 ml. Finally, a sample of 1 ml was analyzed using one of the previously described drug-specific HPLC methods.

Structures are written as SMILES.

Consider `Cc1ccc(-c2cc(C(F)(F)F)nn2-c2ccc(S(N)(=O)=O)cc2)cc1` [Celecoxib], for which the Dissolution behaviour result in data set [1] is recorded as “poor solubility”. Besides, the “Solubility in Miglyol 812” value in data set [2] is on record as “exceptionally low solubility”. For the same compound, in data set [2] (Tetra EG, Transcutol HP, Carbowax PEG 400), the Solubility in co-solvents entry is recorded as “high solubility”.

Turning to `CC(C)OC(=O)C(C)(C)Oc1ccc(C(=O)c2ccc(Cl)cc2)cc1` [Fenofibrate], in data set [1], the Dissolution behaviour entry was “poor solubility”.
